Measured values from ChEMBL document CHEMBL3112450, “Synthesis and in vitro antitumor evaluation of primary amine substituted quinazoline linked benzimidazole” (Bioorg Med Chem Lett, 2014).

System: T47D
Experiment: Cytotoxicity against human T47D cells assessed as growth inhibition at 10 uM after 48 hrs by SRB assay
Type: functional
Conditions: read-out: GI

Question: With `C=CCn1c(C)nc2ccc(Nc3nc(Nc4ncccn4)nc4ccccc34)cc21` as the compound, how does the inhibition of growth at 10 µM read?
Answer: Its inhibition of growth at 10 µM is 40%.
